US7423159B2, “Agent for preventing or treating neuropathy” (Takeda Pharmaceutical Company Limited, priority 2002, dated 2008)

Structure (SMILES) | melting point
Cn1ncc(/C=C/C(=O)Nc2ccc(CCn3cccn3)cc2)c1-c1ccc(F)cc1 [Example 186, (2E)-3-[5-(4-Fluorophenyl)-1-methyl-1H-pyrazol-4-yl]-N-{4-[2-(1H-pyrazol-1-yl)ethyl]phenyl}acrylamide] | 205 to 206 °C
Cn1ncc(/C=C/C(=O)Nc2ccc(CO)cc2)c1-c1ccc(F)cc1 [Example 153, (2E)-3-[5-(4-Fluorophenyl)-1-methyl-1H-pyrazol-4-yl]-N-[4-(hydroxymethyl)phenyl]acrylamide] | 117 to 118 °C
CCn1ncc(/C=C/C(=O)Nc2ccc(CP(=O)(OC)OC)cc2)c1-c1ccc(F)cc1 | 187 to 189 °C
CCOP(=O)(Cc1ccc(NC(=O)/C=C/c2cnn(CC)c2-c2ccc(F)cc2)cc1)OCC | 226 to 227 °C
CCOC(=O)c1csc(Cc2ccc(NC(=O)/C=C/c3cnn(C)c3-c3ccc(F)cc3)cc2)n1 [Example 126, Ethyl 2-[4-({(2E)-3-[5-(4-fluorophenyl)-1-methyl-1H-pyrazol-4-yl]prop-2-enoyl}amino)benzyl]-1,3-thiazole-4-carboxylate] | 189 to 190 °C
Cc1cn(Cc2ccc(NC(=O)/C=C/c3cnn(C)c3-c3ccc(F)cc3)cc2)cn1 [Example 202, (2E)-3-[5-(4-Fluorophenyl)-1-methyl-1H-pyrazol-4-yl]-N-{4-[(4-methyl-1H-imidazol-1-yl)methyl]phenyl}acrylamide] | 202 to 203 °C
CCOP(=O)(Cc1ccc(NC(=O)CCc2cnn(-c3ccccc3)c2-c2ccccc2)cc1)OCC | 157 to 159 °C
COP(=O)(Cc1ccc(NC(=O)/C=C/c2cnn(C)c2-c2ccc(Br)cc2)cc1)OC | 212 to 214 °C
COP(=O)(Cc1ccc(NC(=O)/C=C/c2cnn(C)c2-c2cccs2)cc1)OC | 247 to 248 °C
Cn1ncc(/C=C/C(=O)Nc2ccc(CS(=O)(=O)c3ccccc3)cc2)c1-c1ccc(F)cc1 [Example 225, (2E)-3-[5-(4-Fluorophenyl)-1-methyl-1H-pyrazol-4-yl]-N-{4-[(phenylsulfonyl)methyl]phenyl}acrylamide] | 223 to 224 °C
Cn1ncc(/C=C/C(=O)Nc2ccc(Cc3nnn[nH]3)cc2)c1-c1ccc(F)cc1 [Example 87, (2E)-3-[5-(4-Fluorophenyl)-1-methyl-1H-pyrazol-4-yl]-N-[4-(1H-tetrazol-5-ylmethyl)phenyl]acrylamide] | 252 to 253 °C
Cn1ncc(/C=C/C(=O)Nc2ccc(CCn3ccnc3)cc2)c1-c1ccc(F)cc1 [Example 187, (2E)-3-{5-(4-Fluorophenyl)-1-methyl-1H-pyrazol-4-yl}-N-{4-[2-(1H-imidazol-1-yl)ethyl]phenyl}acrylamide] | 160 to 162 °C
CCc1nccn1Cc1ccc(NC(=O)/C=C/c2cnn(C)c2-c2ccc(F)cc2)cc1 [Example 191, (2E)-N-{4-[(2-Ethyl-1H-imidazol-1-yl)methyl]phenyl}-3-[5-(4-fluorophenyl)-1-methyl-1H-pyrazol-4-yl]acrylamide] | 237 to 238 °C
CCOP(=O)(Cc1ccc(NC(=O)/C=C/c2nn(C)cc2-c2ccc(F)cc2)cc1)OCC | 203 to 204 °C
Cn1ncc(/C=C/C(=O)Nc2ccc(CN)cc2)c1-c1ccc(F)cc1 [Example 137, (2E)-N-[4-(aminomethyl)phenyl]-3-[5-(4-fluorophenyl)-1-methyl-1H-pyrazol-4-yl]acrylamide] | 201 to 202 °C
Cn1ncc(/C=C/C(=O)Nc2ccc(Cc3nccs3)cc2)c1-c1ccc(F)cc1 [Example 128, (2E)-3-[5-(4-Fluorophenyl)-1-methyl-1H-pyrazol-4-yl]-N-{4-[(1,3-thiazol-2-yl)methyl]phenyl}acrylamide] | 209 to 210 °C
Cn1ncc(/C=C/C(=O)Nc2ccc(Cn3cc4ccccc4n3)cc2)c1-c1ccc(F)cc1 [Example 178, (2E)-3-[5-(4-Fluorophenyl)-1-methyl-1H-pyrazol-4-yl]-N-[4-(2H-indazol-2-ylmethyl)phenyl]acrylamide] | 231 to 232 °C
CCOP(=O)(Cc1ccc(NC(=O)/C=C\c2cnn(C)c2-c2ccc(OC)cc2)cc1)OCC | 187 to 188 °C
Cc1nnc(Cc2ccc(NC(=O)/C=C/c3cnn(C)c3-c3ccc(F)cc3)cc2)o1 [Example 136, (2E)-3-[5-(4-fluorophenyl)-1-methyl-1H-pyrazol-4-yl]-N-{4-[(5-methyl-1,3,4-oxadiazol-2-yl)methyl]phenyl}acrylamide] | 151 to 152 °C
CN(C)C(=O)Cc1ccc(NC(=O)/C=C/c2cnn(C)c2-c2ccc(F)cc2)cc1 [Example 143, (2E)-N-{4-[2-(dimethylamino)-2-oxoethyl]phenyl}-3-[5-(4-fluorophenyl)-1-methyl-1H-pyrazol-4-yl]acrylamide] | 209 to 210 °C
CCc1cn(Cc2ccc(NC(=O)/C=C/c3cnn(C)c3-c3ccc(F)cc3)cc2)cn1 [Example 171, (2E)-N-{4-[(4-Ethyl-1H-imidazol-1-yl)methyl]phenyl}-3-[5-(4-fluorophenyl)-1-methyl-1H-pyrazol-4-yl]acrylamide] | 224 to 226 °C
Cn1ncc(/C=C/C(=O)Nc2ccc(Cc3nc4ccccc4o3)cc2)c1-c1ccc(F)cc1 [Example 107, (2E)-N-[4-(1,3-Benzoxazol-2-ylmethyl)phenyl]-3-[5-(4-fluorophenyl)-1-methyl-1H-pyrazol-4-yl]acrylamide] | 195 to 196 °C
COP(=O)(Cc1ccc(NC(=O)/C=C/c2c(C)nn(C)c2-c2ccc(F)cc2)cc1)OC | 195 to 198 °C
COP(=O)(Cc1ccc(NC(=O)/C=C/c2cnn(C)c2-c2cccc(F)c2)cc1)OC | 224 to 226 °C
CCOP(=O)(Cc1ccc(NC(=O)/C=C/c2cn[nH]c2-c2ccc(F)cc2)cc1)OCC | 181 to 182 °C
COP(=O)(Cc1ccc(NC(=O)/C=C/c2cnn(C)c2-c2ccco2)cc1)OC | 201 to 202 °C

Results, then the molecule that gave them:

melting point | Structure (SMILES)
263 to 264 °C | Cc1nc2ccccc2n1Cc1ccc(NC(=O)/C=C/c2cnn(C)c2-c2ccc(F)cc2)cc1 [Example 173, (2E)-3-[5-(4-Fluorophenyl)-1-methyl-1H-pyrazol-4-yl]-N-{4-[(2-methyl-1H-benzimidazol-1-yl)methyl]phenyl}acrylamide]
138 to 139 °C | CCOP(=O)(Cc1ccc(NC(=O)/C=C/c2c(-c3ccc(F)cc3)cnn2C)cc1)OCC
281 to 282 °C | CC(=O)Nc1ccc(NC(=O)/C=C/c2cnn(C)c2-c2ccc(F)cc2)cc1 [Example 166, (2E)-N-[4-(Acetylamino)phenyl]-3-[5-(4-fluorophenyl)-1-methyl-1H-pyrazol-4-yl]acrylamide]
192 to 193 °C | CC(=O)N(C)Cc1ccc(NC(=O)/C=C/c2cnn(C)c2-c2ccc(F)cc2)cc1 [Example 117, (2E)-N-(4-{[Acetyl(methyl)amino]methyl}phenyl)-3-[5-(4-fluorophenyl)-1-methyl-1H-pyrazol-4-yl]acrylamide]
143 to 144 °C | CCOP(=O)(Cc1ccc(NC(=O)CCc2cnn(C)c2-c2ccc(F)cc2)cc1)OCC
170 to 172 °C | CCOP(=O)(Cc1cccc(NC(=O)/C=C/c2cnn(C)c2-c2ccc(F)cc2)c1)OCC
233 to 234 °C | CC(=O)NCc1ccc(NC(=O)/C=C/c2cnn(C)c2-c2ccc(F)cc2)cc1 [Example 189, (2E)-N-{4-[(Acetylamino)methyl]phenyl}-3-[5-(4-fluorophenyl)-1-methyl-1H-pyrazol-4-yl]acrylamide]
172 to 173 °C | COc1ccc(-c2c(/C=C\C(=O)Nc3ccc(CP(=O)(OC)OC)cc3)cnn2C)cc1
226 to 227 °C | Cn1ncc(/C=C/C(=O)Nc2ccc(Cc3ccccc3)cc2)c1-c1ccc(F)cc1 [Example 175, (2E)-N-(4-Benzylphenyl)-3-[5-(4-fluorophenyl)-1-methyl-1H-pyrazol-4-yl]acrylamide]
159 to 160 °C | CCOP(=O)(Cc1ccc(NC(=O)/C=C/c2c(C)nn(C)c2-c2ccc(F)cc2)cc1)OCC
249 to 250 °C | Cn1ncc(/C=C/C(=O)Nc2ccc(CN3C(=O)CNC3=O)cc2)c1-c1ccc(F)cc1 [Example 157, (2E)-N-{4-[(2,5-Dioxo-1-imidazolidinyl)methyl]phenyl}-3-[5-(4-fluorophenyl)-1-methyl-1H-pyrazol-4-yl]acrylamide]
258 to 259 °C | CC(C)C(=O)NCc1ccc(NC(=O)/C=C/c2cnn(C)c2-c2ccc(F)cc2)cc1 [Example 139, (2E)-3-[5-(4-Fluorophenyl)-1-methyl-1H-pyrazol-4-yl]-N-{4-[(isobutyrylamino)methyl]phenyl}acrylamide]
271 to 272 °C | CCC(=O)NCc1ccc(NC(=O)/C=C/c2cnn(C)c2-c2ccc(F)cc2)cc1 [Example 138, (2E)-3-[5-(4-fluorophenyl)-1-methyl-1H-pyrazol-4-yl]-N-{4-[(propionylamino)methyl]phenyl}acrylamide]
205 to 206 °C | Cn1ncc(/C=C/C(=O)Nc2ccc(Cc3nc4c(s3)CCCC4)cc2)c1-c1ccc(F)cc1 [Example 124, (2E)-3-[5-(4-Fluorophenyl)-1-methyl-1H-pyrazol-4-yl]-N-[4-(4,5,6,7-tetrahydro-1,3-benzothiazol-2-ylmethyl)phenyl]acrylamide]
250 to 251 °C | Cn1ncc(/C=C/C(=O)Nc2ccc(CNC(=O)c3ccccc3)cc2)c1-c1ccc(F)cc1 [Example 142, N-[4-({(2E)-3-[5-(4-Fluorophenyl)-1-methyl-1H-pyrazol-4-yl]prop-2-enoyl}amino)benzyl]benzamide]
279 to 280 °C | Cc1cc2ncn(Cc3ccc(NC(=O)/C=C/c4cnn(C)c4-c4ccc(F)cc4)cc3)c2cc1C [Example 172, (2E)-N-(4-[(5,6-Dimethyl-1H-benzimidazol-1-yl)methyl]phenyl}-3-[5-(4-fluorophenyl)-1-methyl-1H-pyrazol-4-yl]acrylamide]
171 to 172 °C | Cn1ncc(/C=C/C(=O)Nc2ccc(OCc3cscn3)cc2)c1-c1ccc(F)cc1 [Example 92, (2E)-3-[5-(4-Fluorophenyl)-1-methyl-1H-pyrazol-4-yl]-N-[4-(1,3-thiazol-4-ylmethoxy)phenyl]acrylamide]
210 to 211 °C | Cn1ncc(/C=C/C(=O)Nc2ccc(Cn3ncnn3)cc2)c1-c1ccc(F)cc1 [Example 198, (2E)-3-[5-(4-Fluorophenyl)-1-methyl-1H-pyrazol-4-yl]-N-[4-(2H-tetrazol-2-ylmethyl)phenyl]acrylamide]
